Legend:
[1] = Antagonist activity at DOR in CD1 mouse vas deferens assessed as pEC50 for DPDPE-induced inhibition of EFS-evoked contractions at 1 uM incubated for 60 mins
[2] = Agonist activity at MOR in Dunkin-Hartley guinea pig ileum assessed as inhibition of EFS-induced contractions incubated for 60 mins

Row | SMILES | EC50 [1] [µM] | EC50 [2] [µM]
1 | C[C@H]1[C@H]2Cc3ccc(O)cc3[C@]1(C)CCN2CCC(=O)Nc1ccccc1 | 126 | –
2 | C[C@H]1[C@H]2Cc3ccc(O)cc3[C@]1(C)CCN2CCC(=O)Nc1cccc2ccccc12 | 7.94 | 50100
